Source: EPA's ToxRefDB 2

Tests used:
[1] = system: rat; conditions: Prenatal developmental toxicity study, sprague dawley, Oral, Gavage/Intubation, dose end: 17 GD
[2] = system: rabbit; conditions: Prenatal developmental toxicity study, new zealand white, Oral, Gavage/Intubation, dose end: 18 GD
[3] = system: rat; conditions: Combined chronic toxicity/carcinogenicity, fischer, Oral, Feed, dose end: 104 week
[4] = system: rat; conditions: Subchronic oral toxicity in rodents, sprague dawley, Feed, dose end: 6 month
[5] = system: dog; conditions: Chronic toxicity, beagle, Oral, Feed, dose end: 24 month
[6] = system: rat; conditions: Multigenerational reproductive toxicity study, wistar, Oral, Feed, dose end: 2 generation
[7] = group: developmental, developmental / developmental malformation / bone / incomplete ossification + systemic / in life observation / body weight / fetal weight
[8] = group: maternal, systemic / in life observation / body weight / body weight gain + systemic / in life observation / clinical signs / alopecia + systemic / in…
[9] = group: developmental, developmental / developmental malformation / bone / incomplete ossification + developmental / developmental malformation / bone / short + …
[10] = group: maternal, reproductive / reproductive performance / resorptions / resorptions + systemic / in life observation / body weight / body weight + systemic…
[11] = group: cholinesterase, cholinesterase / cholinesterase / cholinesterase / brain cholinesterase (che) + cholinesterase / cholinesterase / cholinesterase / plasma …
[12] = group: cholinesterase, cholinesterase / cholinesterase / cholinesterase / plasma cholinesterase (che)
[13] = group: systemic, systemic / clinical chemistry / cholesterol / cholesterol + systemic / hematology / erythrocyte (rbc) count differential / erythrocyte (rbc…
[14] = group: cholinesterase, cholinesterase / cholinesterase / cholinesterase / erythrocyte cholinesterase (che) + cholinesterase / cholinesterase / cholinesterase / …
[15] = group: systemic, systemic / clinical chemistry / alanine aminotransferase (alt/sgpt) / alanine aminotransferase (alt/sgpt)
[16] = group: cholinesterase, cholinesterase / cholinesterase / cholinesterase / erythrocyte cholinesterase (che)
[17] = group: systemic, systemic / organ weight / liver / absolute + systemic / organ weight / liver / relative to body weight
[18] = group: maternal, reproductive / reproductive performance / fertility / fertility + reproductive / reproductive performance / precoital interval / precoital …
[19] = group: offspring, developmental / offspring survival late / viability index / viability index
[20] = group: offspring, developmental / offspring survival late / viability index / viability index + reproductive / offspring survival early / dead fetuses / dead …
[21] = group: parental, systemic / in life observation / body weight / body weight + systemic / in life observation / body weight / body weight gain + systemic / in…
[22] = group: reproductive, reproductive / reproductive performance / gestational length / gestational length + reproductive / reproductive performance / gestation …

## Cc1cccc(C)c1NC(=O)c1ccc(N)cc1 [Ameltolide]
[1]; [7]
  LEL: 50 mg/kg/day
  LOAEL: > 50 mg/kg/day
  NEL: 25 mg/kg/day
  NOAEL: ≥ 50 mg/kg/day
[1]; [8]
  LEL: 50 mg/kg/day
  LOAEL: > 50 mg/kg/day
  NEL: 25 mg/kg/day
  NOAEL: ≥ 50 mg/kg/day
[2]; [9]
  LEL: 100 mg/kg/day
  LOAEL: > 100 mg/kg/day
  NEL: 50 mg/kg/day
  NOAEL: ≥ 100 mg/kg/day
[2]; [10]
  LEL: 100 mg/kg/day
  LOAEL: > 100 mg/kg/day
  NEL: 50 mg/kg/day
  NOAEL: ≥ 100 mg/kg/day

## CCOP(=S)(OCC)Oc1nc(Cl)c(Cl)cc1Cl [Chlorpyrifos]
[3]; [11]
  LOAEL: 1 mg/kg/day
  NEL: 0.05 mg/kg/day
  NOAEL: 0.1 mg/kg/day
[3]; [12]
  LEL: 0.1 mg/kg/day
[3]; group: systemic, systemic / clinical chemistry / cholesterol / cholesterol + systemic / clinical chemistry / alkaline phosphatase (alp/alk) / alkaline …
  LEL: 1 mg/kg/day
[3]; [13]
  LOAEL: > 10 mg/kg/day
  NOAEL: ≥ 10 mg/kg/day
[3]; group: systemic, systemic / clinical chemistry / cholesterol / cholesterol + systemic / in life observation / body weight / body weight + systemic / …
  NEL: 0.1 mg/kg/day
[4]; [14]
  LEL: 0.75 mg/kg/day
  LOAEL: 0.75 mg/kg/day
  NEL: 0.15 mg/kg/day
  NOAEL: 0.15 mg/kg/day
[4]; [15]
  LEL: 0.15 mg/kg/day
  LOAEL: > 0.75 mg/kg/day
  NEL: 0.03 mg/kg/day
  NOAEL: ≥ 0.75 mg/kg/day
[5]; [16]
  LEL: 0.01 mg/kg/day
  NEL: < 0.01 mg/kg/day
[5]; [12]
  LOAEL: 0.03 mg/kg/day
[5]; group: cholinesterase, cholinesterase / cholinesterase / cholinesterase / plasma cholinesterase (che) + cholinesterase / cholinesterase / cholinesterase / …
  NOAEL: 0.01 mg/kg/day
[5]; [17]
  LEL: 3 mg/kg/day
  LOAEL: > 3 mg/kg/day
  NEL: 1 mg/kg/day
  NOAEL: ≥ 3 mg/kg/day

## Fc1ccc([C@@]2(Cn3cncn3)O[C@@H]2c2ccccc2Cl)cc1 [Epoxiconazole]
[6]; [18]
  LEL: 22.1 mg/kg/day
  LOAEL: 22.1 mg/kg/day
  NEL: 2.17 mg/kg/day
  NOAEL: 2.17 mg/kg/day
[6]; [19]
  LEL: 0.85 mg/kg/day
  NEL: < 0.85 mg/kg/day
[6]; [20]
  LOAEL: 22.1 mg/kg/day
  NOAEL: 2.17 mg/kg/day
[6]; [21]
  LEL: 22.1 mg/kg/day
  LOAEL: 22.1 mg/kg/day
  NEL: 2.17 mg/kg/day
  NOAEL: 2.17 mg/kg/day
[6]; [22]
  LEL: 31.9 mg/kg/day
  LOAEL: 31.9 mg/kg/day
  NEL: 2.41 mg/kg/day
  NOAEL: 2.41 mg/kg/day
